These results are taken from patent CN115504972A, “异恶唑类衍生物、其制备方法及其作为药物的用途” (Guangdong Pharmaceutical University, priority 2021, dated 2022).

For one data set, the target named is T1, FXR receptor (FXR受体) (Homo sapiens, UniProt Q96RI1).
T1 sequence (Q96RI1 1-486): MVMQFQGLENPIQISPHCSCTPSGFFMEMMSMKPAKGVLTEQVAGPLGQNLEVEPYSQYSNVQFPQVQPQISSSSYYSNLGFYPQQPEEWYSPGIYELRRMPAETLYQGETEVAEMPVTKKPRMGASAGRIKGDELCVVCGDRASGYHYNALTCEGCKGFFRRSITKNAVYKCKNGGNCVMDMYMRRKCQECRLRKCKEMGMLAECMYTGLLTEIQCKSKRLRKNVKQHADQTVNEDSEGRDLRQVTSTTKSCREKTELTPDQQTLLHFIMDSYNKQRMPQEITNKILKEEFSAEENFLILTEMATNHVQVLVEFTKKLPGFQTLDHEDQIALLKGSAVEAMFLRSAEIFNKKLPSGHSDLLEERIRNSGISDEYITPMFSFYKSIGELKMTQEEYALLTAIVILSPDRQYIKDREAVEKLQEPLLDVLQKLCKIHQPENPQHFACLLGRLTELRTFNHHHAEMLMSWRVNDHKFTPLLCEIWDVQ
The following applies: cited from earlier work.

Data set [1] deals with non-alcoholic fatty liver disease (非酒精性脂肪性肝病(NAFLD)). To be noted: phase IIa clinical study; cited from earlier work.
For data set [2], the system named is non-alcoholic hepatitis (非酒精性肝炎(NASH)). To be noted: phase IIb study, 72 weeks of treatment; cited from earlier work.
The conditions of data set [3]: phase III clinical study; cited from earlier work.
For data set [4] the following is noted: clinical studies; cited from earlier work.
The test system of data set [5] is non-alcoholic fatty liver model mice (非酒精性脂肪肝模型小鼠). Briefly: Improvement of non-alcoholic fatty liver in NASH model mice (Western diet + CCl4), HE staining of liver. The following applies: 10 mg/kg, gavage, once daily, 4 weeks; compared with obeticholic acid 20 mg/kg. It is filed as in vivo, C57BL/6 mouse.

Take `CC[C@H]1[C@@H](O)[C@@H]2[C@H](CC[C@]3(C)[C@@H]([C@H](C)CCC(=O)O)CC[C@@H]23)[C@@]2(C)CC[C@@H](O)C[C@@H]12` [奥贝胆酸]: on FXR receptor (FXR受体), the “FXR receptor agonist activity compared with the endogenous ligand CDCA” value is given as “比内源性配体CDCA活性更高”. In addition, in data set [1], the insulin sensitivity entry is on record as “有显著改善” and the other metabolic effects entry is “有益作用”. In addition, the “histopathology of NASH” value in data set [2] was “对非酒精性肝炎(NASH)的组织病理学的改进也有益”. The “liver fibrosis, histological features of steatohepatitis and liver biochemical indicators” value in data set [3] is “可以改善肝纤维化、脂肪性肝炎的组织学特征以及肝脏的生化指标”. The side effects entry in data set [4] is recorded as “严重的瘙痒、肝毒性、心血管风险等副作用”.
For the molecule `CC(C)c1onc(-c2ccccc2OC(F)(F)F)c1CN1CCC(COc2ccc(C(=O)O)cc2)CC1` [I-9, 4-(1-(5-异丙基-3-(2-三氟甲氧基苯基)异恶唑-4-甲基)哌啶-4-甲氧基)苯甲酸], in data set [5], the ballooning entry was “得到更明显的改善”, the “degree of hepatic steatosis” value is “得到更明显的改善”, the “improvement of non-alcoholic fatty liver” value is on record as “明显优于奥贝胆酸” and the inflammatory infiltration entry is given as “得到更明显的改善”.
